{"source": "paper PMC2247230", "about": "“Synthesis of somatostatin by breast cancer cells and their inhibition by exogenous somatostatin and sandostatin” (British Journal of Cancer, 1989)", "key": {"[1]": {"tested_on": "Antiserum to somatostatin-14", "assay": "Somatostatin radioimmunoassay, specificity (displacement of 125I-Tyr11 somatostatin-14)", "format": "binding", "details": "20 h at 4 C, charcoal/dextran separation; for sensitivity of the RIA to the substance (displacement of label): triplicate"}, "[2]": {"tested_on": "ZR-75-1 cells", "assay": "Cell proliferation assay (electronic cell counting), ZR-75-1", "format": "cell-based, human", "description": "Somatostatin is a neuroendocrine hormone which inhibits not only exocrine and endocrine secretion, but also mito- genesis. Somatostatin-synthesising cells have a widespread anatomical distribution, being found in regions of the central nervous system and gastrointestinal tract. […] There have been few studies of the presence of SLI in breast cancer specimens. […] Inhibition of tumour growth may be indirect, through inhibition of endocrine secretion. […] Correspondence: J. Nelson. Received 5 October 1988, and in revised form, 9 January 1989. Materials and methods Tissue culture All media and fetal calf serum (FCS) were obtained from Flow Laboratories, Rickmansworth, UK. The same batch of serum was used throughout. MCF-7 cells, a gift from Dr C.R. Green, Liverpool University, were routinely cultured in modified Eagle's mini- mal essential medium (MEM) supplemented with non- essential amino acids, sodium pyruvate (1 mM) and 5% v/v FCS. ZR-75-1 and MDA-MB-436 cells were obtained from the American Tissue Culture Collection. ZR-75-1 cells were cultured in RPMI 1640 medium containing 5% FCS. MDA- MB-436 cells were cultured in Liebowitz 15 medium contain- ing 10% FCS. All media contained Phenol Red and were supplemented with penicillin (1OOIUml-1) and streptomycin (100 ug ml- 1). Cell proliferation assays To assess the effects of somatostatin and Sandostatin, 5 x 10^4 cells were inoculated in 24-well tissue culture plates (Costar, Northumbria Biologicals Ltd, Cramlington, UK)- .After one day, plating efficiency was determined in a repre- sentative set of wells (cell counts, day 0) by trypsinisation and electronic cell counting (Coulter counter model ZBI, Coulter Electronics, Luton, UK). At this time medium was removed from remaining wells and replaced with fresh medium (control) or medium containing peptide (treatment) as indicated. Control and treatment media were either unchanged or changed daily during the course of the experi- ments, or control and treatment media were removed after one day exposure (i.e. from day 0 to day 1) and replaced by control medium. Thereafter cells were removed and counted at the times indicated."}, "[3]": {"tested_on": "MDA-MB-436 cells", "description": "(§1) Somatostatin is a neuroendocrine hormone which inhibits not only exocrine and endocrine secretion, but also mito- genesis. Somatostatin-synthesising cells have a widespread anatomical distribution, being found in regions of the central nervous system and gastrointestinal tract. […] There have been few studies of the presence of SLI in breast cancer specimens. […] Inhibition of tumour growth may be indirect, through inhibition of endocrine secretion. […] Correspondence: J. Nelson. Received 5 October 1988, and in revised form, 9 January 1989. Materials and methods Tissue culture All media and fetal calf serum (FCS) were obtained from Flow Laboratories, Rickmansworth, UK. The same batch of serum was used throughout. […] Cell proliferation assays To assess the effects of somatostatin and Sandostatin, 5 x 10^4 cells were inoculated in 24-well tissue culture plates (Costar, Northumbria Biologicals Ltd, Cramlington, UK)- .After one day, plating efficiency was determined in a repre- sentative set of wells (cell counts, day 0) by trypsinisation and electronic cell counting (Coulter counter model ZBI, Coulter Electronics, Luton, UK). […] Thereafter cells were removed and counted at the times indicated."}, "[4]": {"tested_on": "MCF-7 cells", "assay": "Cell proliferation assay (electronic cell counting), MCF-7", "format": "cell-based, human", "details": "500 ng ml-1, 6 days continuous exposure without medium changes, MEM plus 5% FCS (Figure 4); mean of 3-5 wells", "description": "as §1"}, "[5]": {"details": "rat kidney homogenates, ref Pless et al., 1986, cited from earlier work", "description": "In the presence of fe ..."}, "[6]": {"details": "read-out RIA"}}, "note": "Like-named read-outs stand apart in the source and are kept apart here."}
{"molecule": "bacitracin", "values": [{"measurement": "sensitivity of the RIA to the substance (displacement of label)", "setting": "[1]; 1,000 fmol per tube", "value": "insensitive"}]}
{"molecule": "leupeptin", "values": [{"measurement": "sensitivity of the RIA to the substance (displacement of label)", "setting": "[1]; 2,000 fmol per tube", "value": "insensitive"}]}
{"molecule": "Sandostatin", "values": [{"measurement": "effect of one day exposure followed by return to control medium on cell proliferation", "setting": "[2]; 500 ng ml-1, 5% FCS, exposure day 0 to day 1, then control medium (Figures 1c, 2b)", "value": "much less effective in inhibiting cell proliferation than a continuous exposure"}, {"measurement": "inhibition of ZR-75-1 cell proliferation compared with relevant control populations", "setting": "[2]; continuous exposure to single or repeated doses of 500 ng ml-1, in the presence of FCS, day 6 (Figures 1a, b and 2a)", "value": "> 3", "unit": "fold"}, {"measurement": "influence of insulin on the inhibitory effect", "setting": "[2]; in the presence of insulin, 5% FCS (results not shown)", "value": "not more pronounced in the presence of insulin"}, {"measurement": "concentration giving consistent inhibition of growth", "setting": "[2]; range 10-500 ng ml-1 tested, without medium changes", "value": 500, "unit": "ng/mL"}, {"measurement": "lowest concentration at which inhibition was occasionally observed", "setting": "[2]; range 10-500 ng ml-1 tested, without medium changes, inhibition at low concentrations variable", "value": 25, "unit": "ng ml -1"}, {"measurement": "effect of continuous exposure on growth (final cell numbers)", "setting": "[3]; 500 ng ml-1, 6 days continuous exposure without medium changes, L-15 plus 10% FCS (Figure 4), mean of 3-5 wells", "value": "inhibition of growth"}, {"measurement": "effect of continuous exposure on growth (final cell numbers)", "setting": "[4]", "value": "inhibition of growth"}, {"measurement": "sensitivity of the RIA to the substance (displacement of label)", "setting": "[1]; 500 fmol per tube", "value": "insensitive"}, {"measurement": "degradation by homogenate", "setting": "[5]; up to 20h", "value": "virtually unaffected"}]}
{"molecule": "C[C@H](N)C(=O)NCC(=O)N[C@H]1CSSC[C@@H](C(=O)O)NC(=O)[C@H](CO)NC(=O)[C@H]([C@@H](C)O)NC(=O)[C@H](Cc2ccccc2)NC(=O)[C@H]([C@@H](C)O)NC(=O)[C@H](CCCCN)NC(=O)[C@H](Cc2c[nH]c3ccccc23)NC(=O)[C@H](Cc2ccccc2)NC(=O)[C@H](Cc2ccccc2)NC(=O)[C@H](CC(N)=O)NC(=O)[C@H](CCCCN)NC1=O", "note": "[somatostatin]", "values": [{"measurement": "cytotoxic effects in serum-free conditions", "setting": "[3]; serum-free conditions (results not shown)", "value": "no cytotoxic effects"}, {"measurement": "exogenous somatostatin remaining, as measured by RIA", "setting": "[6]; after two days in 5% FCS with or without cells", "value": "undetectable"}, {"measurement": "exogenous somatostatin remaining, as measured by RIA", "setting": "[6]; in the presence of 5% FCS alone (no cells), after one day incubation", "value": "< 50", "unit": "%"}, {"measurement": "exogenous somatostatin remaining, as measured by RIA", "setting": "[6]; in the presence of cells and 5% FCS, RPMI 1640, ZR-75-1 cells, 500 ng ml-1, after one day incubation", "value": "< 20", "unit": "%"}, {"measurement": "remaining of starting levels after degradation", "setting": "[5]; within 1 h", "value": "< 25", "unit": "%"}]}
{"molecule": "somatostatin-28", "values": [{"measurement": "displacement of label in the RIA", "setting": "[1]; compared with somatostatin-14", "value": "displacement of label was found with somatostatin-28 at higher molarities"}]}
{"molecule": "EGF", "values": [{"measurement": "sensitivity of the RIA to the substance (displacement of label)", "setting": "[1]; 1,000 fmol per tube", "value": "insensitive"}]}
{"molecule": "prolactin (protein, UniProt P01236 29-227, looked up, substance tested for cross-reaction in the somatostatin RIA) Prolactin: LPICPGGAARCQVTLRDLFDRAVVLSHYIHNLSSEMFSEFDKRYTHGRGFITKAINSCHTSSLATPEDKEQAQQMNQKDFLSLIVSILRSWNEPLYHLVTEVRGMQEAPEAILSKAVEIEEQTKRLLEGMELIVSQVHPETKENEIYPVWSGLPSLQMADEESRLSAYYNLLHCLRRDSHKIDNYLKLLKCRIIHNNNC", "values": [{"measurement": "sensitivity of the RIA to the substance (displacement of label)", "setting": "[1]; 2,000 fmol per tube", "value": "insensitive"}]}
